The text below walks through data of patent US10464922B2, “Metalloenzyme inhibitor compounds” (NQP 1598 LTD., priority 2015, dated 2019).

In one experiment the test system is A. fumigatus. In words: A. fumigatus MIC at 100% growth inhibition (CLSI M38-A2). The format is cell-based, Aspergillus fumigatus. The settings on record: 100% growth inhibition, range tested 8-0.0078 μg/mL, values given as ranges; for MIC: Aspergillus fumigatus, read-out: Aspergillus fumigatus MIC. The method, then: A. fumigatus MICs were determined at 100% growth inhibition following CLSI guidelines at a concentration range of 8-0.0078 μg/mL (CLSI M38-A2).

In the next experiment the test system is C. albicans (ATCC 90028). Put plainly: Minimum inhibitory concentration, in vitro broth microdilution assay (CLSI M27-A2). The format is cell-based, Candida albicans. To be noted: ATCC 90028, about 50% growth reduction, 2 days at 36° C., range tested 8-0.0078 μg/mL, values given as ranges; for MIC: Candida albicans, ATCC90028, 48 h, read-out: Candida albicans MIC. The procedure: The antifungal potency of the test compounds was measured using the in vitro broth microdilution assay under assay conditions described by the Clinical and Laboratory Standards Institute (CLSI M27-A2). The test compounds were dissolved in 100% DMSO, suspended completely by sonication or vortexing, diluted by 2-fold serial titrations in the same vehicle, for a total of 11 test concentrations. A 4 μL aliquot of each dilution was added to 196 μL of RPMI-1640+MOPS medium seeded with the C. albicans (ATCC 90028) suspension in wells of a 96 well plate (fungal cell count: 1×10^3 to 1×10^4 colony forming units per mL). The final volume was 200 μL in each well and the final DMSO concentration was 2 percent. The inoculated plates were incubated for 2 days at 36° C. Following incubation, the test plates were visually examined and wells were scored for growth to define the minimum inhibitory concentration. […] Each test substance was evaluated in duplicate. Vehicle-control and an active reference agent (e.g., posaconazole) were used as blank and positive controls, respectively.

≈ marks a conversion by molar mass, not a printed value. Where only a bound is given, the exact number is not on record here.

Turning to `OC(c1ccc(N2CCN(c3ccc(-c4ccc(C(F)(F)[C@](O)(Cn5cnnn5)c5ccc(F)cc5F)nc4)cc3)CC2)cn1)C(F)(F)F` (single isomer, unassigned) [Example 6-Fr-II], the “Aspergillus fumigatus MIC” value with A. fumigatus fell in the range of 0.25 to 1.0 µg/mL. Further, the “Candida albicans MIC” value with C. albicans (ATCC 90028) is no more than 7.8 to 10 ng/mL.

Take `OC(c1ccc(N2CCN(c3ccc(-c4ccc(C(F)(F)[C@](O)(Cn5cnnn5)c5ccc(F)cc5F)nc4)cc3)CC2)cn1)C(F)(F)F` (single isomer, unassigned) [Example 6-Fr-I]: the MIC (usually the least concentration at which growth counts as inhibited) is 0.25 to 1 µg/mL (≈ 0.363 to 1.45 µM) in the experiment on A. fumigatus and 0.01 to 0.1 µg/mL (≈ 0.0145 to 0.145 µM) with C. albicans (ATCC 90028).

`OC(CC(F)(F)F)c1ccc(N2CCN(c3ccc(-c4ccc(C(F)(F)[C@](O)(Cn5cnnn5)c5ccc(F)cc5F)nc4)cc3)CC2)cn1` (single isomer, unassigned) [Example 13-Fr-I]: the “Aspergillus fumigatus MIC” value in the experiment on A. fumigatus was in the range of 0.062 to 0.25 µg/mL. The “Candida albicans MIC” value in the experiment on C. albicans (ATCC 90028) is no more than 7.8 to 10 ng/mL.

In the case of `OC(c1cn(-c2ccc(N3CCN(c4ccc(-c5ccc(C(F)(F)C(O)(Cn6cnnn6)c6ccccc6F)nc5)cc4)CC3)cc2)nn1)C(F)(F)F` (single isomer, unassigned; (+)) [108(+), (+)-1,1-difluoro-2-(2-fluorophenyl)-3-(1H-tetrazol-1-yl)-1-(5-(4-(4-(4-(4-(2,2,2-trifluoro-1-hydroxyethyl)-1H-1,2,3-triazol-1-yl)phenyl)piperazin-1-yl)phenyl)pyridin-2-yl) propan-2-ol], in the experiment on A. fumigatus, the “Aspergillus fumigatus MIC” value was 0.25 to 1.0 µg/mL. In the experiment on C. albicans (ATCC 90028), the “Candida albicans MIC” value is no more than 7.8 to 10 ng/mL.

`OC(c1cn(-c2ccc(N3CCN(c4ccc(-c5ccc(C(F)(F)C(O)(Cn6cnnn6)c6ccccc6F)nc5)cc4)CC3)cn2)nn1)C(F)(F)F` (single isomer, unassigned; (+)) [110(+), (+)-1,1-difluoro-2-(2-fluorophenyl)-3-(1H-tetrazol-1-yl)-1-(5-(4-(4-(6-(4-(2,2,2-trifluoro-1-hydroxyethyl)-1H-1,2,3-triazol-1-yl)pyridin-3-yl)piperazin-1-yl)phenyl)pyridin-2-yl) propan-2-ol]: the “Aspergillus fumigatus MIC” value in the experiment on A. fumigatus lay within 0.25 to 1.0 µg/mL. Further, the “Candida albicans MIC” value in the experiment on C. albicans (ATCC 90028) is no more than 7.8 to 10 ng/mL.

Turning to `OC(CC(F)(F)F)c1ccc(N2CCN(c3ccc(-c4ccc(C(F)(F)[C@](O)(Cn5cncn5)c5ccc(F)cc5F)nc4)cc3)CC2)cn1` (single isomer, unassigned; (+)) [120(+)], the “Aspergillus fumigatus MIC” value in the experiment on A. fumigatus was in the range of 0.062 to 0.25 µg/mL. Besides, the “Candida albicans MIC” value in the experiment with C. albicans (ATCC 90028) is no more than 7.8 to 10 ng/mL.

`OC(CC(F)(F)F)c1ccc(N2CCN(c3ccc(-c4ccc(C(F)(F)[C@](O)(Cn5cnnn5)c5ccc(F)cc5)nc4)cc3)CC2)cn1` (single isomer, unassigned; (+)) [121(+)]: the “Aspergillus fumigatus MIC” value in the experiment with A. fumigatus was in the range of 0.25 to 1.0 µg/mL. The “Candida albicans MIC” value with C. albicans (ATCC 90028) is no more than 7.8 to 10 ng/mL.

With `OC(CC(F)(F)F)c1ccc(N2CCN(c3ccc(-c4ccc(C(F)(F)[C@](O)(Cn5cnnn5)c5ccccc5F)nc4)cc3)CC2)cn1` (single isomer, unassigned; (+)) [122(+)], the “Aspergillus fumigatus MIC” value in the experiment on A. fumigatus lay in the range of 0.25 to 1.0 µg/mL. In addition, the “Candida albicans MIC” value with C. albicans (ATCC 90028) is no more than 7.8 to 10 ng/mL.

Take `CC[C@@H]([C@H](C)O)n1ncn(-c2ccc(N3CCN(c4ccc(-c5ccc(C(F)(F)C(O)(Cn6cncn6)c6ccc(F)cc6F)nc5)cc4)CC3)cc2)c1=O` (single isomer, unassigned; (+)) [123(+)]: the “Aspergillus fumigatus MIC” value in the experiment on A. fumigatus fell in the range of 0.062 to 0.25 µg/mL. For the same compound, in the experiment with C. albicans (ATCC 90028), the “Candida albicans MIC” value lay within 10 to 100 ng/mL.

For the compound `OC(c1cn(-c2ccc(N3CCN(c4ccc(-c5ccc(C(F)(F)C(O)(Cn6cnnn6)c6ccccc6F)nc5)cc4)CC3)cc2)nn1)C(F)(F)F` (single isomer, unassigned; (-)) [108(−)], the “Aspergillus fumigatus MIC” value with A. fumigatus is greater than 8 µg/mL. Moreover, the “Candida albicans MIC” value with C. albicans (ATCC 90028) was greater than 8000 ng/mL.

Take `OC(c1cn(-c2ccc(N3CCN(c4ccc(-c5ccc(C(F)(F)C(O)(Cn6cnnn6)c6ccccc6F)nc5)cc4)CC3)cn2)nn1)C(F)(F)F` (single isomer, unassigned; (-)) [110(−), (−)-1,1-difluoro-2-(2-fluorophenyl)-3-(1H-tetrazol-1-yl)-1-(5-(4-(4-(6-(4-(2,2,2-trifluoro-1-hydroxyethyl)-1H-1,2,3-triazol-1-yl)pyridin-3-1)piperazin-1-yl)phenyl)pyridin-2-yl) propan-2-ol]: the “Aspergillus fumigatus MIC” value in the experiment on A. fumigatus was greater than 8 µg/mL. The “Candida albicans MIC” value with C. albicans (ATCC 90028) was greater than 8000 ng/mL.

In the case of `OC(CC(F)(F)F)c1ccc(N2CCN(c3ccc(-c4ccc(C(F)(F)[C@](O)(Cn5cnnn5)c5cccc(F)c5)nc4)cc3)CC2)cn1` (single isomer, unassigned; (-)) [119(−)], the MIC in the experiment with A. fumigatus is greater than 8 µg/mL; in the experiment with C. albicans (ATCC 90028) it was 0.1 to 1 µg/mL (≈ 0.146 to 1.46 µM).

Take `OC(CC(F)(F)F)c1ccc(N2CCN(c3ccc(-c4ccc(C(F)(F)[C@](O)(Cn5cncn5)c5ccc(F)cc5F)nc4)cc3)CC2)cn1` (single isomer, unassigned; (-)) [120(−)]: in the experiment with A. fumigatus, the “Aspergillus fumigatus MIC” value was 0.25 to 1.0 µg/mL. In addition, the MIC in the experiment with C. albicans (ATCC 90028) is 0.01 to 0.1 µg/mL (≈ 0.0143 to 0.143 µM).

Consider `OC(CC(F)(F)F)c1ccc(N2CCN(c3ccc(-c4ccc(C(F)(F)[C@](O)(Cn5cnnn5)c5ccc(F)cc5)nc4)cc3)CC2)cn1` (single isomer, unassigned; (-)) [121(−)], for which, in the experiment with A. fumigatus, the “Aspergillus fumigatus MIC” value was greater than 8 µg/mL. Also, the “Candida albicans MIC” value with C. albicans (ATCC 90028) lay within 100 to 1000 ng/mL.

Turning to `OC(CC(F)(F)F)c1ccc(N2CCN(c3ccc(-c4ccc(C(F)(F)[C@](O)(Cn5cnnn5)c5ccccc5F)nc4)cc3)CC2)cn1` (single isomer, unassigned; (-)) [122(−)], the “Aspergillus fumigatus MIC” value in the experiment with A. fumigatus was greater than 8 µg/mL. In the experiment with C. albicans (ATCC 90028), the “Candida albicans MIC” value was in the range of 1000 to 8000 ng/mL.

Regarding `CC[C@@H]([C@H](C)O)n1ncn(-c2ccc(N3CCN(c4ccc(-c5ccc(C(F)(F)C(O)(Cn6cncn6)c6ccc(F)cc6F)nc5)cc4)CC3)cc2)c1=O` (single isomer, unassigned; (-)) [123(−)], the “Aspergillus fumigatus MIC” value in the experiment with A. fumigatus lay in the range of 0.25 to 1.0 µg/mL. For the same compound, the minimum inhibitory concentration (MIC) with C. albicans (ATCC 90028) was in the range of 0.01 to 0.1 µg/mL (≈ 0.0132 to 0.132 µM).

Turning to `OC(c1ccc(N2CCN(c3ccc(-c4ccc(C(F)(F)C(O)(Cn5cnnn5)c5cc(F)ccc5F)nc4)cc3)CC2)cc1)C(F)(F)F` (stereo not drawn) [15(+)], in the experiment on A. fumigatus, the “Aspergillus fumigatus MIC” value lay in the range of 0.25 to 1.0 µg/mL. The “Candida albicans MIC” value in the experiment on C. albicans (ATCC 90028) is no more than 7.8 to 10 ng/mL.

Turning to `OC(c1ccc(N2CCN(c3ccc(-c4ccc(C(F)(F)C(O)(Cn5cnnn5)c5cc(F)ccc5F)nc4)cc3)CC2)cc1)C(F)(F)F` (stereo not drawn) [15(−), 2-(2,5-difluorophenyl)-1,1-difluoro-3-(1H-tetrazol-1-yl)-1-(5-(4-(4-(4-(2,2,2-trifluoro-1-hydroxyethyl)phenyl)piperazin-1-yl)phenyl)pyridin-2-yl) propan-2-ol], the “Aspergillus fumigatus MIC” value in the experiment on A. fumigatus is greater than 8 µg/mL. In addition, the “Candida albicans MIC” value in the experiment on C. albicans (ATCC 90028) is 100 to 1000 ng/mL.

Turning to `CC[C@@H]([C@H](C)O)n1ncn(-c2ccc(N3CCN(c4ccc(-c5ccc(C(F)(F)[C@](O)(Cn6cnnn6)c6ccccc6F)nc5)cc4)CC3)cn2)c1=O` [102(+), 4-(5-(4-(4-(6-((R)-1,1-difluoro-2-(2-fluorophenyl)-2-hydroxy-3-(1H-tetrazol-1-yl)propyl)pyridin-3-yl)phenyl)piperazin-1-yl)pyridin-2-yl)-2-((2S,3S)-2-hydroxypentan-3-yl)-2,4-dihydro-3H-1,2,4-triazol-3-one], the “Aspergillus fumigatus MIC” value with A. fumigatus is 0.25 to 1.0 µg/mL. In addition, the “Candida albicans MIC” value with C. albicans (ATCC 90028) was no more than 7.8 to 10 ng/mL.

For the compound `CC[C@@H]([C@H](C)O)n1ncn(-c2ccc(N3CCN(c4ccc(-c5ccc(C(F)(F)[C@](O)(Cn6cnnn6)c6ccccc6F)nc5)cc4)CC3)cn2)c1=O` [102(−), 4-(5-(4-(4-(6-((R)-1,1-difluoro-2-(2-fluorophenyl)-2-hydroxy-3-(1H-tetrazol-1-yl)propyl)pyridin-3-yl)phenyl)piperazin-1-yl)pyridin-2-yl)-2-((2S,3S)-2-hydroxypentan-3-yl)-2,4-dihydro-3H-1,2,4-triazol-3-one], the “Aspergillus fumigatus MIC” value in the experiment on A. fumigatus is greater than 8 µg/mL. Further, the “Candida albicans MIC” value in the experiment with C. albicans (ATCC 90028) is 100 to 1000 ng/mL.

As to `CC[C@@H]([C@H](C)O)n1ncn(-c2ccc(N3CCN(c4ccc(-c5ccc(C(F)(F)[C@](O)(Cn6cnnn6)c6ccc(F)cc6)nc5)cc4)CC3)cn2)c1=O` [109(+), (+)-4-(5-(4-(4-(6-((R)-1,1-difluoro-2-(4-fluorophenyl)-2-hydroxy-3-(1H-tetrazol-1-yl)propyl)pyridin-3-yl)phenyl)piperazin-1-yl)pyridin-2-yl)-2-((2S,3S)-2-hydroxypentan-3-yl)-2,4-dihydro-3H-1,2,4-triazol-3-one], the “Aspergillus fumigatus MIC” value with A. fumigatus is 0.25 to 1.0 µg/mL. Moreover, in the experiment on C. albicans (ATCC 90028), the “Candida albicans MIC” value is no more than 7.8 to 10 ng/mL.

As for `CC[C@@H]([C@H](C)O)n1ncn(-c2ccc(N3CCN(c4ccc(-c5ccc(C(F)(F)[C@](O)(Cn6cnnn6)c6ccc(F)cc6)nc5)cc4)CC3)cn2)c1=O` [109(−), (−)-4-(5-(4-(4-(6-((R)-1,1-difluoro-2-(4-fluorophenyl)-2-hydroxy-3-(1H-tetrazol-1-yl)propyl)pyridin-3-yl)phenyl)piperazin-1-yl)pyridin-2-yl)-2-((2S,3S)-2-hydroxypentan-3-yl)-2,4-dihydro-3H-1,2,4-triazol-3-one], the “Aspergillus fumigatus MIC” value with A. fumigatus lay in the range of 1.0 to 4.0 µg/mL. For the same compound, the “Candida albicans MIC” value with C. albicans (ATCC 90028) is 100 to 1000 ng/mL.
